Measurements reported in patent US8669271B2 (Boehringer Ingelheim International GmbH, priority 2010, dated 2014).
pEC50: −log10 of the molar value.

Target: T1, human GPR119 (Homo sapiens, UniProt Q8TDV5)
T1 construct: expression vector for human GPR119 cDNA (Acc. No. NP_848566); expressed in transfected cells
T1 sequence (Q8TDV5 1-335): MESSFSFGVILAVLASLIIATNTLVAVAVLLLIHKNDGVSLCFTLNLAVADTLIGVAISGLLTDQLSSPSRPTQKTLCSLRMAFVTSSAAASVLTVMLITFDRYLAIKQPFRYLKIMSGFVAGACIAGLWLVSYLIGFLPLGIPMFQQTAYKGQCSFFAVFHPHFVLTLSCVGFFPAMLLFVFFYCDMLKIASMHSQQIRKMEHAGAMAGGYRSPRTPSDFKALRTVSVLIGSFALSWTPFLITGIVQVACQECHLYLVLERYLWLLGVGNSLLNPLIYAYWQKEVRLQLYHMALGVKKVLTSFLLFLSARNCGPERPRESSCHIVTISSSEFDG
Experiment: AlphaScreen cAMP assay in Min-6/hGPR119 cells (activation of GPR119, intracellular cAMP)
Format: cell-based
Details: MIN6 cells stably transfected with human GPR119; cAMP by AlphaScreen after 45 minutes incubation at room temperature
Protocol: The compounds of formula I according to the invention modulate the activity of the G-protein-coupled receptor GPR119. The effect of the compounds on the activation of GPR119 and on the stimulation of intracellular cAMP concentration is determined using the AlphaScreen cAMP Assay Kit (Cat.No.#6760625R) made by PerkinElmer.
MIN6 cells [Miyazaki J et al. Endocrinology. 1990 July; 127(1):126-32] are stably transfected with an expression vector for human GPR119 cDNA (Acc. No. NP_848566). Min-6/hGPR119 cells are cultured in DMEM, 10% FBS, 50 μM β-mercaptoethanol, 0.3 mg/mL Geniticin, 2 mM GlutaMAX at 37° C. 5% CO2. For the assay, the cells are seeded in Optiplates (white, 384-well, 160W— barcoded, TC, sterile with lid, Cat.No.#6007688 (Perkin Elmer); 10000 cells/well; 50 μl). The plates covered with lids are then incubated for 24 hours at 37° C./5% CO2. After the medium is aspirated from the wells completely, 10 μl of the test compound are added, the compounds are diluted using stimulating buffer (140 mM NaCl, 3.6 mM KCl, 0.5 mM NaH2PO4, 0.5 mM MgSO4, 1.5 mM CaCl2, 10 mM Hepes, 5 mM NaHCO3; pH 7.4. 0.5 mM IBMX and 0.1% BSA, the final DMSO concentration is 1%). After 45 minutes incubation at room temperature (approx. 20° C.), the cAMP concentrations are determined using the AlphaScreen cAMP Assay Kit (Cat.No.#6760625R from PerkinElmer).

| Compound | pEC50 |
| --- | --- |
| CC(C)OC(=O)N1CCC(C2Cc3cc(-c4ccc(S(C)(=O)=O)cn4)ccc3O2)CC1 (stereo not shown) [Example 3, 4-[5-(5-Methanesulfonyl-pyridin-2-yl)-2,3-dihydro-benzofuran-2-yl]-piperidine-1-carboxylic acid isopropyl ester] | 7.41 |
| COCCN(C)C(=O)c1ccc(-c2ccc3c(c2)CC(C2CCN(C(=O)OC(C)C)CC2)O3)cc1 (stereo not shown) [Example 123, 4-(5-{4-[(2-Methoxy-ethyl)-methyl-carbamoyl]-phenyl}-2,3-dihydro-benzofuran-2-yl)-piperidine-1-carboxylic acid isopropyl ester] | 7.52 |
| Cc1nc(S(C)(=O)=O)ccc1-c1ccc2c(c1)CC(C1CCN(C(=O)OC(C)C)CC1)O2 (stereo not shown) [Example 18, 4-[5-(6-Methanesulfonyl-2-methyl-pyridin-3-yl)-2,3-dihydro-benzofuran-2-yl]-piperidine-1-carboxylic acid isopropyl ester] | 6.83 |
| CNC(=O)c1ccc(-c2ccc3c(c2)CC(C2CCN(C(=O)OC(C)(C)C)CC2)O3)nc1 (stereo not shown) [Example 42, 4-[5-(5-Methylcarbamoyl-pyridin-2-yl)-2,3-dihydro-benzofuran-2-yl]-piperidine-1-carboxylic acid tert-butyl ester] | 7.19 |
| CCS(=O)(=O)c1ccc(-c2cc3c(cn2)OC(C2CCN(C(=O)OC(C)(C)C)CC2)C3)cc1 (stereo not shown) [Example 66, 4-[5-(4-Ethanesulfonyl-phenyl)-2,3-dihydro-furo[2,3-c]pyridin-2-yl]-piperidine-1-carboxylic acid tert-butyl ester] | 7.92 |
| CC(C)S(=O)(=O)c1ccc(-c2cc3c(cn2)OC(C2CCN(C(=O)OC(C)(C)C)CC2)C3)cc1 (stereo not shown) [Example 65, 4-{5-[4-(Propane-2-sulfonyl)-phenyl]-2,3-dihydro-furo[2,3c]pyridin-2-yl}-piperidine-1-carboxylic acid tert-butyl ester] | 7.59 |
| CC(C)(C)OC(=O)N1CCC(C2Cc3cc(-c4ccc(NS(C)(=O)=O)cc4)ncc3O2)CC1 (stereo not shown) [Example 37, 4-[5-(4-Methanesulfonylamino-phenyl)-2,3-dihydro-furo[2,3-c]pyridin-2-yl]-piperidine-1-carboxylic acid tert-butyl ester] | 7.51 |
| CC(C)OC(=O)N1CCC(C2Cc3cc(-c4ccc(CC(=O)N5CC(F)(F)C5)cc4)ccc3O2)CC1 (stereo not shown) [Example 136] | 7.96 |
| CC(C)(C)OC(=O)N1CCC([C@]2(C)Cc3cc(-c4ccc(S(C)(=O)=O)cc4)ncc3O2)CC1 [Example 83, (S)-4-[5-(4-Methanesulfonyl-phenyl)-2-methyl-2,3-dihydro-furo[2,3-c]pyridin-2-yl]-piperidine-1-carboxylic acid tert-butyl ester] | 8.40 |
| CC(C)OC(=O)N1CCC(C2Cc3cc(-c4ccc(CC(=O)N5CCC(C)(O)C5)cc4)ccc3O2)CC1 (stereo not shown) [Example 144] | 6.96 |
| CC1(OC(=O)N2CCC(C3Cc4cc(-c5ccc(S(C)(=O)=O)cc5)ccc4O3)CC2)CC1 (stereo not shown) [Example 17, 4-[5-(4-Methanesulfonyl-phenyl)-2,3-dihydro-benzofuran-2-yl]-piperidine-1-carboxylic acid 1-methyl-cyclopropyl ester] | 7.34 |
| CC(C)OC(=O)N1CCC(C2Cc3cc(-c4ccc(S(N)(=O)=O)cc4)ccc3O2)CC1 (stereo not shown) [Example 110] | 7.28 |
| CC(C)(C)OC(=O)N1CCC([C@@H]2Cc3cc(-c4ccc(S(C)(=O)=O)cn4)ccc3O2)CC1 [Example 71, (S)-4-[5-(5-Methanesulfonyl-pyridin-2-yl)-2,3-dihydro-benzofuran-2-yl]-piperidine-1-carboxylic acid tert-butyl ester] | 7.96 |
| CC(C)OC(=O)N1CCC([C@]2(C)Cc3cc(C4=CCN(S(C)(=O)=O)CC4)ncc3O2)CC1 [Example 89, (S)-4-[5-(1-Methanesulfonyl-1,2,3,6-tetrahydro-pyridin-4-yl)-2-methyl-2,3-dihydro-furo[2,3-c]pyridin-2-yl]-piperidine-1-carboxylic acid isopropyl ester] | 8.15 |
| CCNC(=O)c1ccc(-c2ccc3c(c2)CC(C2CCN(C(=O)OC(C)C)CC2)O3)cc1 (stereo not shown) [Example 109] | 7.55 |
| COC1CN(C(=O)Cc2ccc(-c3ccc4c(c3)CC(C3CCN(C(=O)OC(C)C)CC3)O4)cc2)C1 (stereo not shown) [Example 146] | 7.19 |
| COCCN(C)C(=O)Cc1ccc(-c2ccc3c(c2)CC(C2CCN(C(=O)OC(C)C)CC2)O3)cc1 (stereo not shown) [Example 124] | 7.15 |

| Compound | pEC50 |
| --- | --- |
| CC(C)OC(=O)N1CCC(C2Cc3cc(-c4ccc(CC(=O)NCCC(C)(C)O)cc4)ccc3O2)CC1 (stereo not shown) [Example 148] | 7.01 |
| CC(C)(C)OC(=O)N1CCC(C2Cc3cc(-c4ccc(CS(C)(=O)=O)cc4)ncc3O2)CC1 (stereo not shown) [Example 49, 4-[5-(4-Methanesulfonylmethyl-phenyl)-2,3-dihydro-furo[2,3-c]pyridin-2-yl]-piperidine-1-carboxylic acid tert-butyl ester] | 7.66 |
| CC(C)OC(=O)N1CCC(C2Cc3cc(-c4ccc(NS(C)(=O)=O)cc4)ccc3O2)CC1 (stereo not shown) [Example 121] | 7.34 |
| CC(C)OC(=O)N1CCC([C@]2(C)Cc3cc(-c4ccc(S(C)(=O)=O)cc4)ncc3O2)CC1 [Example 86, (S)-4-[5-(4-Methanesulfonyl-phenyl)-2-methyl-2,3-dihydro-furo[2,3-c]pyridin-2-yl]-piperidine-1-carboxylic acid isopropyl ester] | 7.96 |
| CC(C)OC(=O)N1CCC(C2Cc3cc(-c4ccc(CC(=O)N5CCC(O)C5)cc4)ccc3O2)CC1 (stereo not shown) [Example 132] | 6.81 |
| CC(=O)Nc1ccc(-c2cc3c(cn2)OC(C2CCN(C(=O)OC(C)(C)C)CC2)C3)cc1 (stereo not shown) [Example 67, 4-[5-(4-Acetylamino-phenyl)-2,3-dihydro-furo[2,3-c]pyridin-2-yl]-piperidine-1-carboxylic acid tert-butyl ester] | 7.89 |
| CC(C)(C)OC(=O)N1CCC(C2Cc3cc(C4CCN(S(C)(=O)=O)CC4)ncc3O2)CC1 (stereo not shown) [Example 93, 4-[5-(1-Methanesulfonyl-piperidin-4-yl)-2,3-dihydro-furo[2,3-c]pyridin-2-yl]-piperidine-1-carboxylic acid tert-butyl ester] | 7.49 |
| CC(=O)Nc1ccc(-c2ccc3c(c2)CC(C2CCN(C(=O)OC(C)C)CC2)O3)cn1 (stereo not shown) [Example 161, 4-[5-(6-Acetylamino-pyridin-3-yl)-2,3-dihydro-benzofuran-2-yl]-piperidine-1-carboxylic acid isopropyl ester] | 7.59 |
| COc1ncc(-c2ccc3c(c2)CC(C2CCN(C(=O)OC(C)C)CC2)O3)cn1 (stereo not shown) [Example 108] | 5.70 |
| CS(=O)(=O)c1ccc(-c2cc3c(cn2)OC(C2CCN(C(=O)OC4CCC4)CC2)C3)cc1 (stereo not shown) [Example 24, 4-[5-(4-Methanesulfonyl-phenyl)-2,3-dihydro-furo[2,3-c]pyridin-2-yl]-piperidine-1-carboxylic acid cyclobutyl ester] | 7.77 |
| CC(C)OC(=O)N1CCC(C2Cc3cc(-c4ccc(C(=O)NCC5COCCO5)cc4)ccc3O2)CC1 (stereo not shown) [Example 137] | 7.29 |
| CC(C)(C)OC(=O)N1CCC(C2Cc3cc(-c4ccnnc4)ncc3O2)CC1 (stereo not shown) [Example 54, 4-(5-Pyridazin-4-yl-2,3-dihydro-furo[2,3-c]pyridin-2-yl)-piperidine-1-carboxylic acid tert-butyl ester] | 6.58 |
| CC(C)(C)OC(=O)N1CCC(C2Cc3cc(-c4ccc(CS(C)(=O)=O)cc4F)ncc3O2)CC1 (single isomer, unassigned) [Example 76] | 7.26 |
| Cc1noc(C)c1-c1cc2c(cn1)OC(C1CCN(C(=O)OC(C)(C)C)CC1)C2 (stereo not shown) [Example 38, 4-[5-(3,5-Dimethyl-isoxazol-4-yl)-2,3-dihydro-furo[2,3-c]pyridin-2-yl]-piperidine-1-carboxylic acid tert-butyl ester] | 6.24 |
| CC(C)(C)OC(=O)N1CCC(C2Cc3cc(-c4ccc(CS(C)(=O)=O)cn4)ccc3O2)CC1 (stereo not shown) [Example 48, 4-[5-(5-Methanesulfonylmethyl-pyridin-2-yl)-2,3-dihydro-benzofuran-2-yl]-piperidine-1-carboxylic acid tert-butyl ester] | 7.28 |
| COC(=O)c1cc(-c2ccc3c(c2)CC(C2CCN(C(=O)OC(C)C)CC2)O3)cs1 (stereo not shown) [Example 116] | 6.11 |
| CC(C)(C)OC(=O)N1CCC(C2Cc3cc(-c4ccc(C#N)cc4F)ncc3O2)CC1 (stereo not shown) [Example 29, 4-[5-(4-Cyano-2-fluoro-phenyl)-2,3-dihydro-furo[2,3-c]pyridin-2-yl]-piperidine-1-carboxylic acid tert-butyl ester] | 7.92 |
